These results are taken from patent publication US10870658B2, “Aldose reductase inhibitors and methods of use thereof” (The Trustees of Columbia University in the City of New York, priority 2016, dated 2020).

Values after ≈ are worked out from the molar mass of the structure shown.

One data set can be described thus: physchem. Conditions: octanol/phosphate buffer, pH 7.4.
Data set [1] in a line: Equilibrium solubility in phosphate buffer, pH 7.4. The following applies: aqueous buffer, thermodynamic from solid, phosphate buffer pH 7.4, shaken overnight at room temperature, LC-MS/MS. The class given is physicochemical. Here is the method:
Equilibrium Solubility in Phosphate Buffer, pH 7.4:
The equilibrium solubility of test articles was measured in pH 7.4 aqueous buffers. […] At least 1 mg of powder for each test article was combined with 1 mL of buffer to make a≥1 mg/mL mixture. These samples were shaken on a Thermomixer® overnight at room temperature. The samples were then centrifuged for 10 minutes at 10,000 rpm. […] Standard concentrations ranged from 1.0 μM to 1.0 nM.

A further data set addresses Aldose Reductase (Homo sapiens, UniProt P15121). Put plainly: Aldose reductase enzymatic inhibition (micro plate assay, D-glyceraldehyde and NADPH, absorbance at 340 nm). The class given is biochemical. Conditions: D-glyceraldehyde and NADPH as substrate; 0.1 nm to 10 uM. Here is the method: Aldose Reductase Enzymatic Inhibition:
All compounds and Zopolrestat were tested individually in a micro plate assay for AR inhibition using D-glyceraldehyde and NADPH as substrate and the absorbance changes at 340 nm was monitored. % Inhibition was calculated for ARIs at concentration ranging 0.1 nm to 10 uM.

The conditions of data set [2]: positive control, octanol/buffer pH 7.4; cited from earlier work.

Procedure for physchem: Octanol/Buffer Partition Coefficient (Log D) at pH 7.4:
The octanol/buffer partition coefficient of three test articles was measured at pH 7.4. The pH 7.4 buffer was prepared by combining 50 mL of 0.2 M solution of KH2PO4 with 150 mL of dH2O, and then adjusting to pH 7.4 with 10 N NaOH. In a single incubation, 15 μL of a 10 mM DMSO solution of each test article (100 μM) was added to test tubes which contained 0.75 mL of octanol and 0.75 mL of pH 7.4 phosphate buffer. Testosterone was also introduced to each tube as an internal control, also at a dosing concentration of 100 μM. These samples were gently mixed on a benchtop rotator for 1 hour at room temperature. The tubes were then removed from the rotator and the aqueous and organic phases were allowed to separate for 1 hour. An aliquot of the organic layer was taken and diluted 200-fold into a mixture of 1:1 buffer:acetonitrile (ACN). An aliquot of the aqueous layer was taken and diluted 2-fold, 10-fold, and 200-fold into a mixture of 1:1 buffer:ACN. All samples were assayed by LC-MS/MS using electrospray ionization.

`O=C(O)Cc1nn(Cc2nc3cc(C(F)(F)F)ccc3s2)c(=O)c2c(Cl)sc(Cl)c12` [Compound VII, 2-(5,7-dichloro-4-oxo-3-((5-(trifluoromethyl)benzo[d]thiazol-2-yl)methyl)-3,4-dihydrothieno[3,4-d]pyridazin-1-yl)acetic acid] showed a melting point of 205 to 207 °C.
For the compound `O=C(O)Cc1nn(Cc2nc3cc(C(F)(F)F)ccc3s2)c(=O)c2cscc12` [Compound XII, 2-(4-oxo-3-((5-(trifluoromethyl)benzo[d]thiazol-2-yl)methyl)-3,4-dihydrothieno[3,4-d]pyridazin-1-yl)acetic acid], the logD in “physchem” is -0.09. In addition, the solubility in data set [1] is 970 µg/mL (≈ 2280 µM).
Compound `O=C(O)Cc1nn(Cc2nc3cc(F)ccc3s2)c(=O)c2cscc12` [Compound XIV, 2-(3-((5-fluorobenzo[d]thiazol-2-yl)methyl)-4-oxo-3,4-dihydrothieno[3,4-d]pyridazin-1-yl)acetic acid] yielded a melting point of 172 to 173 °C. Further, the IC50 on Aldose Reductase stood at 60 nM. This compound registered a logD in “physchem” of -0.87. In data set [1], this compound came in with a solubility of 650 µg/mL (≈ 1730 µM).
As for `O=C(O)Cc1nn(Cc2nc3ccccc3s2)c(=O)c2cscc12` [Compound XVI, 2-(3-(benzo[d]thiazol-2-ylmethyl)-4-oxo-3,4-dihydrothieno[3,4-d]pyridazin-1-yl)acetic acid], the melting point was 172 to 173 °C.
`O=C(O)Cc1nn(Cc2nc3cc(Cl)ccc3s2)c(=O)c2cscc12` [Compound XX, 2-(3-((5-chlorobenzo[d]thiazol-2-yl)methyl)-4-oxo-3,4-dihydrothieno[3,4-d]pyridazin-1-yl)acetic acid] returned a melting point of 184 to 185 °C. Further, the IC50 against Aldose Reductase turned out to be 35 nM. Also, in the data set “physchem”, the logD is -0.35. The same compound registered a solubility in data set [1] of 590 µg/mL (≈ 1510 µM).
With `CC(C)(C)OC(=O)Cc1nn(Cc2cc3cc(Cl)ccc3o2)c(=O)c2cscc12` [Compound XXIII, tert-butyl 2-(3-((5-chlorobenzofuran-2-yl)methyl)-4-oxo-3,4-dihydrothieno[3,4-d]pyridazin-1-yl)acetate], the melting point lay within 117 to 118 °C.
Still for that read-out and setting: for `O=C(O)Cc1nn(Cc2cc3cc(Cl)ccc3o2)c(=O)c2cscc12` [Compound XXIV, 2-(3-((5-chlorobenzofuran-2-yl)methyl)-4-oxo-3,4-dihydrothieno[3,4-d]pyridazin-1-yl)acetic acid] the value was 154 to 155 °C.
In turn, `O=C(O)Cc1nn(Cc2cc3ccccc3o2)c(=O)c2cscc12` [Compound XXVI, 2-(3-(benzofuran-2-ylmethyl)-4-oxo-3,4-dihydrothieno[3,4-d]pyridazin-1-yl)acetic acid] registered a melting point of 158 to 159 °C. Half-maximal inhibition at Aldose Reductase (IC50) was put at 57 nM. The same compound gave a logD in the data set “physchem” of -0.86. In data set [1], the solubility is 790 µg/mL (≈ 2320 µM).
For the compound `C[C@]12CC[C@H]3[C@@H](CCC4=CC(=O)CC[C@@]43C)[C@@H]1CC[C@@H]2O` [Testosterone], the “Log D (published/known)” value in data set [2] is 3.0-3.4.

For orientation: melting point means the temperature of the solid-liquid transition. The term logD denotes the decadic logarithm of the distribution of all forms, ionised or not, between an organic phase and buffer at a given pH. A lower logD goes with a more hydrophilic compound. Usually solubility stands for the dissolved amount per volume that the medium holds. Lower therefore signals little dissolved substance. As a reminder, the IC50 is the concentration needed to halve the response being measured. A low value points to higher potency.
